Laboratory results as given in US20240041764A1, “Sustained-Release Oral Fosamprenavir Formulation for Treatment of Reflux” (The Medical College of Wisconsin, Inc., priority 2022, published 2024).

Experiments:
porcine pepsin A = biological target: T1, porcine pepsin A (Sus scrofa, UniProt P00791); experiment: competitive binding assay, fluorescence polarization with pepstatin-Alexa647; settings: 100 nM probe, 0.03 U/ul porcine pepsin A, 37.5% DMSO, 0.1 M HCl pH 1
T1 construct: purchased Worthington Biochemical Corporation
Protocol: To examine whether HIV protease inhibitors bound and inhibited pepsin, we developed assays based on fluorescence polarization which measures size-dependent molecular rotation thereby permitting detection of degradation, association and dissociation events^80. A competitive binding assay was designed employing pepstatin, an inhibitor of sub-nanomolar affinity^81. Pepstatin-Alexa647 was synthesized by dissolving 1 mg pepstatin A (Sigma-Aldrich) in a 50:50 mixture of dimethylformamide (DMF) and dimethylsulfoxide (DMS) followed by the addition of N,N,N′,N′-Tetramethyl-O—(N-succinimidyl)uronium tetrafluoroborate (0.6 mg) and trimethylamine (10 μL) DMF. The mixture was stirred for 1 hour, after which 1 mg Alexa Fluor 647 Cadaverine, Disodium Salt (ThermoFisher Scientific) was added. After 2 hours, the solvents were evaporated under high vacuum (35° C.) and residue partially dissolved in 10% methanol and transferred onto a C18 cartridge (Waters Corporation, Milford, MA). Increasing percentages of methanol were used for the elution. Pepstatin-Alexa647 eluted at 45% methanol. An enzymatic inhibition assay was designed using casein substrate.^82 Bovine alpha casein (Sigma-Aldrich, St. Louis, MO) was labeled with Alexa Fluor 647 Carboxylic Acid, Succinimidyl Ester (ThermoFisher Scientific, Waltham, MA) as described.^82 Briefly, the two were combined at 2.5 ug/mg label to protein ratio in 0.1M sodium bicarbonate for 15 minutes and labeled casein was separated from unbound label in a Sephadex G-25 (Sigma-Aldrich) column comprised of 90×5 mm packed beads in a glass Pasteur pipette, eluted with dPBS pH7.4 (ThermoFisher Scientific). The fast-moving band (casein-bound fluorophore) was collected in ˜0.4 ml volume. […]
(§1) Assays were optimized using ranges of 0.3-1000 μM unlabeled pepstatin, 100-500 nM pepstatin-Alexa647 or casein-Alexa647 probe, 0.003-3 U/μl porcine pepsin (Worthington Biochemical Corporation, Lakewood, NJ), and 5-37.5% DMSO (HIV protease inhibitor diluent) in 0.1 M HCl, pH 1 with 0.01% v/v Tween-20 in 20 μl volumes in 384-well black optical plates (Nunc, Roskilde, DK) and read on a BioTek Cytation 5 (BioTek Instruments, Winooski, VT) with far red FP filter cube (excitation/emission 620/680 nm). […] Assays were performed twice with triplicate reactions read for five minutes and mean mP plotted against probe concentration (binding assay) or read at <2 minutes intervals over 30 minutes with mean mP of plotted over time (activity assay). Half maximal inhibitory concentration (IC50) of inhibitors were calculated from kinetic traces analyzed using an online tool (https://icekat.herokuapp.com/icekat)^83. mP was normalized to blank (absent inhibitor) to derive percent bound or activity.

porcine pepsin = biological target: T2, porcine pepsin (Sus scrofa, UniProt P00791); experiment: peptic activity assay, fluorescence polarization with casein-Alexa647; format: biochemical; settings: for IC50 for pepsin: in vitro binding and inhibition assays, IC50 from kinetic traces
T2 construct: purchased Worthington Biochemical Corporation
Protocol: To examine whether HIV protease inhibitors bound and inhibited pepsin, we developed assays based on fluorescence polarization which measures size-dependent molecular rotation thereby permitting detection of degradation, association and dissociation events^80. A competitive binding assay was designed employing pepstatin, an inhibitor of sub-nanomolar affinity^81. Pepstatin-Alexa647 was synthesized by dissolving 1 mg pepstatin A (Sigma-Aldrich) in a 50:50 mixture of dimethylformamide (DMF) and dimethylsulfoxide (DMS) followed by the addition of N,N,N′,N′-Tetramethyl-O—(N-succinimidyl)uronium tetrafluoroborate (0.6 mg) and trimethylamine (10 μL) DMF. The mixture was stirred for 1 hour, after which 1 mg Alexa Fluor 647 Cadaverine, Disodium Salt (ThermoFisher Scientific) was added. After 2 hours, the solvents were evaporated under high vacuum (35° C.) and residue partially dissolved in 10% methanol and transferred onto a C18 cartridge (Waters Corporation, Milford, MA). Increasing percentages of methanol were used for the elution. […] An enzymatic inhibition assay was designed using casein substrate.^82 Bovine alpha casein (Sigma-Aldrich, St. Louis, MO) was labeled with Alexa Fluor 647 Carboxylic Acid, Succinimidyl Ester (ThermoFisher Scientific, Waltham, MA) as described.^82 Briefly, the two were combined at 2.5 ug/mg label to protein ratio in 0.1M sodium bicarbonate for 15 minutes and labeled casein was separated from unbound label in a Sephadex G-25 (Sigma-Aldrich) column comprised of 90×5 mm packed beads in a glass Pasteur pipette, eluted with dPBS pH7.4 (ThermoFisher Scientific). The fast-moving band (casein-bound fluorophore) was collected in ˜0.4 ml volume. Concentration of resultant probe (casein-Alexa647 in PBS-azide) was estimated via spectrophotometry using Beer's law (Implen Nanophotometer, Implen, Inc. Westlake Village, CA).
as §1, with “nm). Unlabeled pepstatin dose-response curves were used to ensure that the assays were responsive to pepsin inhibition.” for “nm).”

T2 sequence (P00791 60-385): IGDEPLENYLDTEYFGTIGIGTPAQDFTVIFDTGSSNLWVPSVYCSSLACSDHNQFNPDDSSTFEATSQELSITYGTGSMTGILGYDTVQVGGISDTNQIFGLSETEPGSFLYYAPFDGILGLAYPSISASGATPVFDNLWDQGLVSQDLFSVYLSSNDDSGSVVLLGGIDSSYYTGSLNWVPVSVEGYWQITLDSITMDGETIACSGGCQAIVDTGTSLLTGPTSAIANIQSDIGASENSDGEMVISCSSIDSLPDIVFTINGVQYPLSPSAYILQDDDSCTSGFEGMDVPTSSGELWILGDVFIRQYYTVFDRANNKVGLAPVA
T1 sequence (P00791 60-385): as above

CC(C)CN(C[C@@H](O)[C@H](Cc1ccccc1)NC(=O)O[C@H]1CO[C@H]2OCC[C@H]21)S(=O)(=O)c1ccc(N)cc1 [darunavir, [(3aS,4R,6aR)-2,3,3a,4,5,6a-hexahydrofuro[2,3-b]furan-4-yl]N-[(2S,3R)-4-[(4-aminophenyl)sulfonyl-(2-methylpropyl)amino]-3-hydroxy-1-phenylbutan-2-yl]carbamate]
bound pepsin (competitive binding) (porcine pepsin A): low micromolar | inhibited pepsin (peptic activity) (porcine pepsin; 200 nM probe, 0.01 U/μL pepsin, 5% DMSO, 0.1 M HCl pH 1): low micromolar | IC50 for pepsin (porcine pepsin): low micromolar range | IC50 for pepsin (porcine pepsin; listed as Darunavir): lowest IC50
